Measurements taken from paper PMC10057977, “Use of In Vivo Imaging and Physiologically-Based Kinetic Modelling to Predict Hepatic Transporter Mediated Drug–Drug Interactions in Rats” (Pharmaceutics, 2023).

Assays:
[1] = Gadoxetate PBPK model transport parameters; design: species or system rat
Description: A previously developed reduced PBPK model of gadoxetate was used in the current study. The PBPK model (Figure 1) is composed of seven compartments: blood, spleen, splanchnic organs, liver interstitial space, hepatocytes, rest of the body (ROB) vascular, and extravascular space. In the ROB compartment, muscles, fat, bones, and skin, among others, are represented.
A permeability-limited liver model was applied to describe the gadoxetate active uptake into the hepatocytes, as per Equation (1). (1) Vliv,extrdcliv,extr/dt=inputsplan+inputart−Qhcliv,extr/Kliv, extr−b−CLuptake· cliv,extr−CLpassive(cliv,extr−fu,liv, cell cliv,cell)Vliv,celldcliv,cell/dt=CLuptake cliv,extr+CLpassive(cliv,extr−fu,liv, cell cliv,cell)−CLbiliary fu,liv,cell cliv,cell […]
cliv,extr , cliv,cell [μmol/L] and Vliv,extr , Vliv,int [L] are the gadoxetate concentrations ( c ) and volumes ( V ) of the liver extracellular space and hepatocytes, respectively. […] Details of the model development, relations between concentrations in PBPK compartments and measured ΔR1 , parameters identification, and performance were described previously. […]

[2] = design: method as in supplement [33]; settings: clinical; ref supplement [33]; cited from earlier work

SMILES	CLbiliary, new value in unified units ([1]; total concentration in hepatocytes) [mL/min]	CLuptake, new value in unified units ([1]; total concentration in the liver interstitial fluid) [mL/min]	treated patients with mild liver dysfunction [2]
CCOc1ccc(C[C@@H](CN(CCN(CC(=O)[O-])CC(=O)[O-])CC(=O)[O-])N(CC(=O)[O-])CC(=O)[O-])cc1.[Gd+3].[H+].[H+] [gadoxetate, Gadoxetate]	0.756	36.2	
COc1ccccc1Oc1c(NS(=O)(=O)c2ccc(C(C)(C)C)cc2)nc(-c2ncccn2)nc1OCCO [Bosentan]			about 10%
